≈ marks a conversion by molar mass, not a printed value. Calls of active or inactive are those of the source. The rule behind the calls is not given here. Square brackets hold non-standard residues; d marks the D form. Peptide text beside a SMILES is read from it. ξ: configuration not given here. Ile(3ξ) = CCC(C)[C@H](N)C(=O)O
Experiments:
Escherichia coli [1] = assay: Antimicrobial activity against Escherichia coli ATCC 25922 in presence of NaCl; type: functional, organism-based
Escherichia coli [2] = assay: Antimicrobial activity against Escherichia coli ATCC 25922 in presence of MgCl2; type: functional, organism-based
[3] = Cytotoxicity against human Glomerular mesenchymal cell assessed as reduction in cell viability at 0 to 128 uM incubated for 1 hr by Resazurin cell viability kit; type: toxicity, cell-based; details: glomerular mesenchymal cells, dose 0-128 µM
Escherichia coli [4] = assay: Antibacterial activity against Escherichia coli ATCC 25922 assessed as growth inhibition measured after 18 to 24 hrs by CLSI based broth microdilution method; type: functional; details: time 18-24 hrs
Staphylococcus aureus [5] = assay: Antibacterial activity against Staphylococcus aureus ATCC 25923 assessed as growth inhibition measured after 18 to 24 hrs by CLSI based broth microdilution method; type: functional; details: time 18-24 hrs
Staphylococcus aureus [6] = assay: Antimicrobial activity against Staphylococcus aureus ATCC 25923 assessed as fold increase in MIC in presence of KCl; type: functional
Staphylococcus aureus [7] = assay: Antimicrobial activity against Staphylococcus aureus ATCC 25923 assessed as increase fold in increase MIC in presence of FeCl3; type: functional
Pseudomonas aeruginosa = assay: Antibacterial activity against Pseudomonas aeruginosa ATCC 27853 assessed as growth inhibition measured after 18 to 24 hrs by CLSI based broth microdilution method; type: functional; details: time 18-24 hrs
Escherichia coli [8] = assay: Antimicrobial activity against Escherichia coli ATCC 25922 in presence of KCl; type: functional, organism-based
Staphylococcus aureus [9] = assay: Antimicrobial activity against Staphylococcus aureus ATCC 25923 assessed as fold increase in MIC in presence of MgCl2; type: functional
Erythrocyte = assay: Hemolytic activity against mouse RBC measured after 1 hrs; type: toxicity, cell-based
Klebsiella pneumoniae = assay: Antibacterial activity against Klebsiella pneumoniae ATCC 700603 assessed as growth inhibition measured after 18 to 24 hrs by CLSI based broth microdilution method; type: functional; details: time 18-24 hrs
Bacillus subtilis = assay: Antibacterial activity against Bacillus subtilis ATCC 23857 assessed as growth inhibition measured after 18 to 24 hrs by CLSI based broth microdilution method; type: functional; details: time 18-24 hrs
Staphylococcus aureus [10] = assay: Antimicrobial activity against Staphylococcus aureus ATCC 25923 assessed as fold increase in MIC in presence of NaCl; type: functional
Cell membrane [11] = assay: Induction of cell membrane disruption in Staphylococcus aureus ATCC 25923 assessed as increase in PI uptake measured after 30 to 120 mins by propidium iodide staining based FACS flow cytometry analysis (reference value: 15%); type: subcellular; details: time 30-120 min
Cell membrane [12] = assay: Induction of cell membrane disruption in Escherichia coli ATCC 25922 assessed as increase in PI uptake measured after 30 to 120 mins by propidium iodide staining based FACS flow cytometry analysis (reference value: 6.0 %); type: subcellular; details: time 30-120 min
Staphylococcus aureus [13] = assay: Antimicrobial activity against Staphylococcus aureus ATCC 25923 in presence of NaCl; type: functional, organism-based
Staphylococcus aureus [14] = assay: Antimicrobial activity against Staphylococcus aureus ATCC 25923 in presence of KCl; type: functional, organism-based
Staphylococcus aureus [15] = assay: Antimicrobial activity against Staphylococcus aureus ATCC 25923 in presence of FeCl3; type: functional, organism-based
[16] = Stability of compound in serum measured after 1 to 6 hrs by RP-HPLC analysis; type: ADME, cell-free; details: time 1-6 hrs
Staphylococcus aureus [17] = assay: Antimicrobial activity against Staphylococcus aureus ATCC 25923 in presence of MgCl2; type: functional, organism-based
Staphylococcus aureus [18] = assay: Antibacterial activity against Staphylococcus aureus ATCC 25923 assessed as fold increase in MIC measured after 15 passages by resistance development assay; type: functional
Escherichia coli [19] = assay: Antibacterial activity against Escherichia coli ATCC 25922 assessed as fold increase in MIC measured after 15 passages by resistance development assay relative to control; type: functional

| Molecule | MIC (Escherichia coli [4]) [µM] | MIC (Staphylococcus aureus [5]) [µM] | MIC (Pseudomonas aeruginosa) [µM] | MHC10 (Erythrocyte) [µM] | MIC (Klebsiella pneumoniae) [µM] | MIC (Bacillus subtilis) [µM] | also measured |
| --- | --- | --- | --- | --- | --- | --- | --- |
| CC(C)C[C@H](NC(=O)[C@H](CC(C)C)NC(=O)[C@H](CCCCN)NC(=O)[C@H](CCC(=O)O)NC(=O)[C@H](CC(C)C)NC(=O)[C@H](CC(C)C)NC(=O)[C@H](CCCCN)NC(=O)[C@H](C)NC(=O)[C@@H](NC(=O)[C@H](CCCCN)NC(=O)[C@@H]1CCCN1C(=O)[C@H](CC(C)C)NC(=O)[C@@H](N)Cc1ccccc1)C(C)C)C(N)=O (H-FLPKVAKLLEKLL-NH2) | 8 (≈ 12.1 µg/mL) | 8 (≈ 12.1 µg/mL) | 16 (≈ 24.2 µg/mL) | > 256 | 32 (≈ 48.4 µg/mL) | 8 (≈ 12.1 µg/mL) | Activity (Escherichia coli [1]): Active; Activity (Escherichia coli [2]): Active; CC50 at 1 h [3]: > 128 µM; fold change (FC) (Staphylococcus aureus [6]): 2; fold change (FC) (Staphylococcus aureus [7]): 2; Activity (Escherichia coli [8]): Active; fold change (FC) (Staphylococcus aureus [9]): 2; fold change (FC) (Staphylococcus aureus [10]): 2 |
| CC(C)C[C@H](NC(=O)[C@H](CC(C)C)NC(=O)[C@H](CCC(=O)O)NC(=O)[C@H](CO)NC(=O)[C@H](CC(C)C)NC(=O)[C@H](CC(C)C)NC(=O)[C@H](CCCCN)NC(=O)[C@H](CCCCN)NC(=O)[C@@H](NC(=O)[C@H](CCCCN)NC(=O)[C@@H]1CCCN1C(=O)[C@H](CC(C)C)NC(=O)[C@@H](N)Cc1ccccc1)C(C)C)C(N)=O (H-FLPKVKKLLSELL-NH2) | 32 (≈ 48.9 µg/mL) | 64 (≈ 97.7 µg/mL) | 32 (≈ 48.9 µg/mL) | > 256 | 64 (≈ 97.7 µg/mL) | 16 (≈ 24.4 µg/mL) | – |
| CCC(C)[C@H](NC(=O)[C@@H]1CCCN1C(=O)[C@H](CC(C)C)NC(=O)[C@@H](N)Cc1ccccc1)C(=O)N[C@H](C(=O)N[C@@H](C)C(=O)N[C@@H](CCCCN)C(=O)N[C@@H](CC(C)C)C(=O)N[C@@H](CC(C)C)C(=O)N[C@@H](CO)C(=O)N[C@@H](CCCCN)C(=O)N[C@@H](CC(C)C)C(=O)N[C@@H](CC(C)C)C(N)=O)C(C)C (some centres undefined) (H-FLP[Ile(3ξ)]VAKLLSKLL-NH2) | > 128 | 8 (≈ 11.6 µg/mL) | > 128 | 17.97 | > 128 | 4 (≈ 5.82 µg/mL) | – |
| CCC(C)[C@H](NC(=O)[C@@H]1CCCN1C(=O)[C@H](CC(C)C)NC(=O)[C@@H](N)Cc1ccccc1)C(=O)N[C@H](C(=O)N[C@@H](CCCCN)C(=O)N[C@@H](CCCCN)C(=O)N[C@@H](CC(C)C)C(=O)N[C@@H](CC(C)C)C(=O)N[C@@H](CCC(=O)O)C(=O)N[C@@H](CCCCN)C(=O)N[C@@H](CC(C)C)C(=O)N[C@@H](CC(C)C)C(N)=O)C(C)C (some centres undefined) (H-FLP[Ile(3ξ)]VKKLLEKLL-NH2) | 8 (≈ 12.4 µg/mL) | 4 (≈ 6.21 µg/mL) | 8 (≈ 12.4 µg/mL) | 42.55 | 16 (≈ 24.8 µg/mL) | 4 (≈ 6.21 µg/mL) | – |
| CCC(C)[C@H](NC(=O)[C@@H]1CCCN1C(=O)[C@H](CC(C)C)NC(=O)[C@@H](N)Cc1ccccc1)C(=O)N[C@H](C(=O)N[C@@H](CCCCN)C(=O)N[C@@H](CCCCN)C(=O)N[C@@H](CC(C)C)C(=O)N[C@@H](CC(C)C)C(=O)N[C@@H](CCCCN)C(=O)N[C@@H](CCC(=O)O)C(=O)N[C@@H](CC(C)C)C(=O)N[C@@H](CC(C)C)C(N)=O)C(C)C (some centres undefined) (H-FLP[Ile(3ξ)]VKKLLKELL-NH2) | 8 (≈ 12.4 µg/mL) | 4 (≈ 6.21 µg/mL) | 8 (≈ 12.4 µg/mL) | 53.73 | 16 (≈ 24.8 µg/mL) | 4 (≈ 6.21 µg/mL) | – |
| CO[C@H]1/C=C/O[C@@]2(C)Oc3c(C)c(O)c4c(O)c(c(/C=N/N5CCN(C)CC5)c(O)c4c3C2=O)NC(=O)/C(C)=C\C=C\[C@H](C)[C@H](O)[C@@H](C)[C@@H](O)[C@@H](C)[C@H](OC(C)=O)[C@@H]1C [RIFAMPIN] | 4 (≈ 3.29 µg/mL) | < 1 | 32 (≈ 26.3 µg/mL) | – | 32 (≈ 26.3 µg/mL) | < 1 | Activity (Cell membrane [11]): 3.45%; Activity (Cell membrane [12]): 17.4%; Activity (Staphylococcus aureus [13]): Active; Activity (Staphylococcus aureus [14]): Active; Activity (Staphylococcus aureus [15]): Active; Stability [16]: Stable; Activity (Staphylococcus aureus [17]): Active; fold change (FC) (Staphylococcus aureus [18]): 4096; fold change (FC) (Escherichia coli [19]): 16 |
| GENTAMICIN | – | – | – | – | – | – | fold change (FC) (Staphylococcus aureus [18]): 512; fold change (FC) (Escherichia coli [19]): 128 |

From ChEMBL document CHEMBL5108051, “Improving the Antimicrobial Performance of Amphiphilic Cationic Antimicrobial Peptides Using Glutamic Acid Full-Scan and Positive Charge Compensation Strategies” (J Med Chem, 2022)
